Tests used:
Format in all cases: in vivo, mouse
brain of MCAO mice = assay: Fluorescence imaging of FITC-labeled VK in brain of stroke mice
Protocol: A successful MCAO model was established and these mice were used for subsequent experiments. Immediately after surgery, FITC or FITC-labeled VK were administered intravenously and mice were killed after 30 min to isolate the brain and imaged by an imaging system (IVIS Lumina II). For fluorescent imaging, the brain was immediately collected and kept in the dark for 0, 30, 60, and 90 min after the administration of VK. Frozen sections were prepared according to the above method (seen Morphological Assessment). Images were acquired by confocal microscopy (FV1000 MPE-B, Olympus).

[1] = system: PI3K (p85α), AKT, IκBα, NF-κB, p38, ERK1/2 phosphorylation; assay: Quantitative immunoblotting of brain; conditions: MCAO/R mice, Western blot
Protocol: Quantitative immunoblotting was accomplished as previously described. Anti-β-actin (Themo) was used as an internal loading control. Imaging of blots was performed using an AzureC300 with secondary antibodies(Themo). Analysis was carried out in Image Lab and signal intensities were normalized to loading controls, where applicable. The antibodies and their concentrations are listed as follows (antibody, dilution, catalog number, company, country): AKT (1:1000,4691, CST, USA), phospho-AKT (1:1000, 4046S, CST), phospho-p44/42 MAPK (Erk1/2) (Thr202/Tyr204) (1:1000, 4370S, CST), p44/42 MAPK (Erk1/2) (1:1000,4695S, CST), p38 MAPK (1:1000,8690S, CST), phospho-p38 MAPK (Thr180/Tyr182) (1:1000, 4511S, CST), NF-κB p65 (1:1000,8242S, CST), phospho-NF-κB p65 (Ser536) (1:1000,3033S, CST), IκBα (L35A5) Mouse mAb (1:1000, 4814S, CST), phospho-IκBα (Ser32) (1:1000,2859S, CST), PI3 kinase p85α (1:1000,11889S, CST), and phospho-PI3 kinase p85 (Tyr458)/p55 (Tyr199) (1:1000, 17366S, CST).

mice [2] = assay: Histological analysis (H&E) of organs in acute toxicity test
Protocol: Histological analysis. Organs such as heart, liver, kidney, and brain were excised and fixed in 10% formaldehyde for histological analysis. Their organs were collected and fixed with 4% PFA for 12-18 h, followed by dehydrating using an automatic dehydrator (Leica ASP-300S, Germany) and embedding in paraffin. Then, each sample was coronally cut (4 µm) using a rotatory microtome (Leica RM2245, Germany). The […]
Primary culture of neuron and microglia. Primary cortical neurons (1.0 × 10^5 cells per well in poly-L-lysine-coated 24-well plate) were obtained from fetal C57BL/6 mice of embryonic day 16–17.5, as previously reported1. After careful removal of meninges, cortical tissues were digested in dulbecco's modified eagle medium (DMEM, Gibco) containing 0.05% trypsin (Gibco) at 37 °C for 20 min. DMEM containing 10% FBS (Gibco) was then added to terminate the digestion. The mixture was homogenized by pipetting 120 times and was subsequently filtered with a 100-μm cell strainer (Biologix) and centrifuged at 1000 rpm for 5 min. Then, the cells were collected and resuspended by DMEM supplemented with 10% FBS (Gibco) and penicillin-streptomycin (Gibco).
The suspension was seeded into 24-well plates (10^5 cells/ml), and 4 h later, the medium was changed with Neurobasal medium (Gibco) containing 1% […] and 2% B27 supplement. […]

mice [3] = assay: Coagulation function (PT, APTT, TT, FIB) in acute toxicity test; conditions: VK 1.5-384 mg/kg single i.p., after 14th day
Protocol: Platelet aggregation function test. Venous blood from (normal healthy rabbits) was collected in 3 mL sodium citrate anticoagulation vacuum plastic tubes. The collected venous blood was centrifuged for 10 min at 100 × g at 4℃ to obtain the upper plasma, and the platelet rich plasma (PRP) was prepared, centrifuged again for 10 min at 2000 × g at 4°C to draw the upper plasma, the platelet poor plasma (PPP) was prepared and […] to a platelet concentration of 3×10^8 cells/ml was counted. The adjusted PRP was placed into a four-channel platelet aggregation instrument (Agg RAM, Helena Laboratories, USA) to determine the 5 min maximum platelet aggregation rate with adenosine diphosphate (ADP), arachidonic acid (AA), thrombin, collagen (COL) , and platelet-activating factor (PAF) or saline as inducers (at a final […]
Acute toxicity test. Systemic acute toxicity test by peritoneal injection was performed according to the guideline provided by Center for Drug Evaluation and Research. In addition to the normal group, male mice were randomly divided into the treated groups received a single dose of 1.5 mg/kg, 6 mg/kg, 24 mg/kg, 96 mg/kg and 384 body weight of VK. […]
The obtained plasma was analyzed using an automatic coagulation apparatus (CA1500). […]

“Gly-Arg-Pro-Hyp-Gly-Phe-Ser-Pro-Phe-Arg-Ile-Asp [VK, Vespakinin-M]” was tested, and the “accumulation in brain, in vivo imaging” value (brain of MCAO mice; FITC-labeled VK i.v. to stroke mice, brain imaged after 30 min (IVIS Lumina II)) was “slightly accumulate in the ischemic region”, the “penetration of BBB and cell membrane (conclusion)” value (brain of MCAO mice; under conditions such as cerebral I/R) was “can cross the BBB and cell membrane” and the “PI3K (p85α) and AKT phosphorylation” value [1] was “stimulated MCAO-mediated PI3K (p85α) and AKT phosphorylation”. The “phosphorylation levels of p38 and ERK1/2 vs vehicle” value [1] was “partially downregulated”, the “IκB and NF-κB phosphorylation levels” value ([1]; VK 300 µg/kg) was “reduced IκB and NF-κB levels” and the “karyopyknosis and cellular swelling of hepatocytes in liver” value (mice [2]; VK 96 and 384 mg/kg single i.p.) was “moderate”. For the same substance, the “histopathology of brain, liver and kidney vs control” value (mice [2]; all treated groups after 14 days, H&E) was “no changes at the cellular level” and the “four coagulation (PT, APTT, TT, FIB)” value (mice [3]) was “No obvious change”.

Source: PMC8776894 (Communications Biology, 2022)
